The source of these data is publication PMC11901902, “Design, Synthesis, and Cytotoxicity Evaluation of Novel Indolin-2-One Based Molecules on Hepatocellular Carcinoma HepG2 Cells as Protein Kinase Inhibitors” (Molecules, 2025).

Type in all cases: cell-based, human
For series [1], the system named is HepG-2 cells. Description: DNA flow cytometry cell cycle analysis. The following applies: HepG-2, compound at its IC50, 24 h. Here is the method:
The HepG-2 cells were then collected by trypsinization, washed with PBS, and fixed. After that, treated cells were stained using the Cycle Test Plus DNA Reagent Kit (BD Biosciences, San Jose, CA, USA) according to the manufacturer’s instructions. The percentage of cell cycle distribution was calculated using CELLQUEST software 5.1 (Becton Dickinson Immuno-cytometry Systems, San Jose, CA, USA) (Table S4).

Series [2] deals with HepG-2 cells. In words: MTT cytotoxicity assay on HepG-2 cells. Particulars: for fold higher cytotoxicity than indirubin: HepG-2 cells, relative to indirubin; for viability at 1.25 µM / viability at 2.5 µM / viability at 5 µM / viability at 10 µM / viability at 20 µM / viability at 40 µM / viability at 80 µM / viability at 160 µM / IC50: Homo sapiens, HepG2; for viability at 1.25 µM: HepG-2, 1.25 µM; for viability at 1.25 µM / viability at 2.5 µM / viability at 5 µM / viability at 10 µM / viability at 20 µM / viability at 40 µM / viability at 80 µM / viability at 160 µM: Table S1; for viability at 2.5 µM: HepG-2, 2.5 µM; for viability at 5 µM: HepG-2, 5 µM; for viability at 10 µM: HepG-2, 10 µM; for viability at 20 µM: HepG-2, 20 µM; for viability at 40 µM: HepG-2, 40 µM; for viability at 80 µM: HepG-2, 80 µM; for viability at 160 µM: HepG-2, 160 µM; for IC50: MTT, 24 h treatment, mean of three experiments ± SEM. Here is the method: Cytotoxic activity of the synthesized compounds was evaluated against HepG-2 and MCF-7 cancer cell lines using the MTT assay. The tested cell lines were obtained from the American Type Culture Collection (ATCC, […], USA) through the Tissue Culture Unit, The Egyptian Organization for Biological Products and Vaccines (Vacsera, Giza, Egypt). Indirubin, chemicals, and solvents were purchased from Sigma-Aldrich (St. Louis, MO, USA). The cells were grown on RPMI-1640 medium supplemented with 10% inactivated fetal calf serum and 50 µg/mL gentamycin. The cells were maintained at 37 °C in a humidified atmosphere with 5% CO2 and were sub-cultured two to three times per week. For antitumor assays, the tumor cell lines were suspended in the medium at concentration 5 × 10^4 cell/well in Corning® 96-well tissue culture plates (Corning, Corning, NY, USA), then incubated for 24 h. The tested molecules were then added to 96-well plates (six replicates) to achieve six concentrations for each compound. Six vehicle controls with media or 0.5% DMSO were run for each 96-well plate as a control. After incubating for 24 h, the numbers of viable cells were determined by the MTT test. Briefly, the media was removed from the 96 well plate and replaced with 100 µL of fresh culture RPMI 1640 medium without phenol red then 10 µL of the 12 mM MTT stock solution (5 mg of MTT in 1 mL of PBS) to each well including the untreated controls. The 96-well plates were then incubated at 37 °C and 5% CO2 for 4 h. An 85 µL aliquot of the media was removed from the wells, and 50 µL of DMSO was added to each well, mixed thoroughly with the pipette, and incubated at 37 °C for 10 min. Then, the optical density was measured at 590 nm with the microplate reader (SunRise, TECAN, Inc., Morrisville, NC, USA) to determine the number of viable cells, and the percentage of viability was calculated as […], where ODt is the mean optical density of wells treated with the tested sample and ODc is the mean optical density of untreated cells. The relation between surviving cells and drug concentration was plotted to obtain the survival curve of each tumor cell line after treatment with the specified compound. […] Each concentration was repeated four times.
A general note: Formazan colour is commonly taken as a measure of viable cells.

The test system of the next series is p21. Description: ELISA of p21 in treated HepG-2 cells. Particulars: HepG-2, compound at its IC50, 24 h. As for the experimental part:
HepG2 cells were cultured in RPMI 10% + 5%FBS penicillin/streptomycin and were incubated at a humidity 5% CO2 and maintained at 37 °C. […] HepG2 cells were cultured as a monolayer in T-25 flasks and were seeded to attain 30% confluency prior to treatment. The main 100 mM stock dissolved in DMSO was diluted with the cell culture medium in order to reach the previously determined IC50 concentration of each of the three preparations. After that, HepG2 cells were collected via trypsinization and centrifuged at 10,000 rpm. The pellet was then rinsed with PBS and lysed in RIPA lysis buffer at 4 °C for 45 min, then centrifuged at 14,000 rpm for 20 min to remove the cellular debris. Lysates were then collected and stored at […] for protein determination. The levels of p53, p21, Fas-L, Bax, Bcl-2, and caspase 3/7 were assessed using the human P53 ELISA kit (Catalog No. ABIN6962151), P21 ELISA kit (Catalog No. ABIN6966175), Human Apoptosis Ligand (FAS-L), Bax ELISA kit, Human Factor-Related. Bcl-2 ELISA kit ELISA kit, and caspase3/7 ELISA kit (Elabscience Biotechnology Co., Wuhan, Hubei, China). The procedure of the used kits was done according to the manufacturer’s instructions. Briefly, equal amounts of cell lysates were loaded and then probed with specific antibodies. The samples were measured at 450 nm in ROBONEK P2000 ELISA reader. […]
In general terms: In an ELISA, binding on a coated surface is turned into a signal by an enzyme label.

In the case of `O=C1Nc2ccc(Cl)cc2C1=Nc1ccc2nc[nH]c(=O)c2c1` [Compound 9, 6-(5-Chloro-2-oxo-1,2-dihydro-indol-3-ylideneamino)-3H-quinazolin-4-one], in the series on HepG-2 cells [1], the “Cell cycle distribution (%) G0-G1” value is 67.16%, the “Cell cycle distribution (%) G2-M” value was determined as 20.75%, the “Cell cycle distribution (%) S” value was determined as 32.03% and the “Cell cycle distribution (%) sub-G0/G1” value is 13.82%. Moreover, in the series with HepG-2 cells [2], the “fold higher cytotoxicity than indirubin” value is 2.2–2.7 fold, the viability at 1.25 µM came out at 61.3 ± 3.6%, the viability at 2.5 µM was determined as 54.4 ± 3.1% and the viability at 5 µM was 34.8 ± 0.9%. In the series with HepG-2 cells [2], this molecule yielded a viability at 10 µM of 28.6 ± 2.1%, a viability at 20 µM of 23.1 ± 2.4%, a viability at 40 µM of 19.6 ± 2% and a viability at 80 µM of 16.3 ± 1.7%. Besides, in the series on HepG-2 cells [2], the viability at 160 µM was 12.9 ± 1.5% and the IC50 was found to be 2.53 ± 0.11 µM. Also, the “upregulation of p21 expression compared to untreated cells” value in the series on p21 came out at 4.52 fold.

`O=C1Nc2ccc(Cl)cc2C1=Nc1ccc(-c2nc3ccccc3c(=O)[nH]2)cc1` [Compound 20, 2-[4-(5-Chloro-2-oxo-1,2-dihydro-indol-3-ylideneamino)-phenyl]-3H-quinazolin-4-one]: in the series on HepG-2 cells [1], the “Cell cycle distribution (%) G0-G1” value worked out at 60.3%, the “Cell cycle distribution (%) G2-M” value was found to be 2.86%, the “Cell cycle distribution (%) S” value amounted to 16.27% and the “Cell cycle distribution (%) sub-G0/G1” value is listed as 10.59%. Further, in the series with HepG-2 cells [2], the “fold higher cytotoxicity than indirubin” value was 2.2–2.7 fold, the viability at 1.25 µM came to 58.2 ± 3.3%, the viability at 2.5 µM was determined as 52.1 ± 2.9% and the viability at 5 µM turned out to be 36.7 ± 1.2%. For the same molecule, in the series on HepG-2 cells [2], the viability at 10 µM came to 29.4 ± 2.5%, the viability at 20 µM amounted to 21.7 ± 2%, the viability at 40 µM was 18.4 ± 1.8% and the viability at 80 µM stood at 15.2 ± 1.5%. In the series on HepG-2 cells [2], this molecule returned a viability at 160 µM of 11.8 ± 1.3% and an IC50 of 3.08 ± 0.35 µM. For the same molecule, the “upregulation of p21 expression compared to untreated cells” value in the series on p21 was 3.9 fold.

A word on the viability: it is a read-out of living cells in per cent, often relative to untreated cells. The low end stands for a greater loss of cells, the high end for better survival. The term IC50 denotes the concentration at which inhibition is half-maximal.
